# Reference: patent US10815233B2, “Dihydroindolizinone derivative” (ONO PHARMACEUTICAL CO., LTD., priority 2014, dated 2020)
# Marks after values point to notes of the source that are not given here.
# Key:
# standard human plasma = experiment: Activated partial thromboplastin time (APTT) in standard human plasma; type: biochemical; conditions: concentration required for doubling the coagulation time vs vehicle (1% DMSO)
# Method: Activated partial thromboplastin time (APTT) and prothrombin time (PT) were measured by using a fully automatic device for measuring blood coagulation (CA-1500, Sysmex Corporation). On APTT or PT measurement, standard human plasma for the blood coagulation tests (Siemens Healthcare Diagnostics GmbH) was mixed with a diluted solution of the compound of the present invention, and thereafter, APTT reagent (Siemens Healthcare Diagnostics GmbH) and 0.02 M of calcium chloride or PT reagent (Siemens Healthcare Diagnostics GmbH) were automatically added to the mixture in order to initiate clot formation. The anticoagulation activity (APTT×2 or PT×2) of the compound of the present invention was expressed as a concentration required for doubling the coagulation time in the vehicle (1% DMSO) group. APTT×2 or PT×2 was determined by plotting the concentration of the compound of the present invention against a twofold increase in the coagulation time.
# [1] = Pharmacokinetic (PK) tests in rats; type: in vivo; conditions: for concentration at 8 h: male, Crj:CD(SD), oral, read-out: Plasma concentration C8h; for concentration at 8 h / AUC: rat, plasma; for AUC: po, fasted male Crj:CD(SD) rats; for APTT × 2 maintaining time: 1 mg/kg orally, period when plasma concentration exceeded APTT×2; for C8h/APTT × 2: C8h divided by APTT×2
# Method: The compound of the present invention was administered to fasted male Crj:CD(SD) rats by intravenous injection as a single intravenous dose of 0.1 mg/kg (vehicle: 20% HP-β-CD solution) and by forced oral dosage as a dose of 1 mg/kg per os (vehicle: 0.5% methylcellulose solution). Blood samples were collected from cervical vein into heparinized syringes at 0.08, 0.25, 0.5, 1, 3 or 7 hours after administration by intravenous injection or 0.08, 0.25, 0.5, 1, 2, 4, 6, 8 or 24 hours after oral administration. Plasma was obtained by centrifugation, and plasma was stored at −20° C. until measurement of plasma concentration.
# In order to measure the plasma concentration of the compound of the present invention, the plasma sample was subjected to deproteinization by using acetonitrile, was filtrated by using a filter, and thereafter, was diluted with purified water, and then was analyzed by LC/MS/MS. A column for analysis (Shim-pack XR-ODSII, 2.0 mm×75 mm, 2.2 μm) and mobile phases (0.1% formic acid in water and 0.1% formic acid in acetonitrile, flow rate: 0.5 mL/min) were used. The system was used by detection of cations in the Multiple Reaction Monitoring (MRM) mode.
# The area under the blood concentration versus time curve (AUC) and the bioavailability (BA) of the compound of the present invention were calculated. In addition, as indices of the maintaining time of the anticoagulation activity in the case of oral administration, AUC/APTT×2, which is obtained by dividing AUC by APTT×2, and C8h/APTT×2, which is obtained by dividing C8h (the plasma concentration at 8 hours after administration) by APTT×2, were calculated.
# In addition, the period of time when the compound concentration in plasma of the compound of the present invention exceeded APTT×2 (the APTT×2 maintaining time) was calculated from the change in the compound concentration in plasma in the case when the compound of the present invention was orally administered at a dose of 1 mg/kg. The longer the APTT×2 maintaining time is, the longer the period of time is when the anticoagulation activity is maintained after oral administration.
# [2] = biological target: T1, human blood coagulation factor XIa (Homo sapiens, UniProt P03951); experiment: Inhibitory activity on human blood coagulation factor XIa (chromogenic substrate S-2366); type: biochemical; conditions: chromogenic substrate S-2366, 37° C.; read-out: FXIa inhibitory activity IC50
# T1 construct: human blood coagulation factor XIa (Haematologic Technologies Inc.); purchased Haematologic Technologies Inc
# T1 sequence (P03951 388-625 limits assumed): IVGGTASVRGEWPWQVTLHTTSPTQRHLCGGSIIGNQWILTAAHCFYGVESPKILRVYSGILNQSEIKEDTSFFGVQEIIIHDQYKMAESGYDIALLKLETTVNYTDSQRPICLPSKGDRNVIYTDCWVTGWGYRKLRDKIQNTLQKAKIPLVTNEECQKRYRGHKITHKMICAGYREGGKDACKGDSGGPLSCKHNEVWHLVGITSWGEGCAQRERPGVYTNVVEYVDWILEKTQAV
# T1 sequence (P03951 19-387 partner limits assumed): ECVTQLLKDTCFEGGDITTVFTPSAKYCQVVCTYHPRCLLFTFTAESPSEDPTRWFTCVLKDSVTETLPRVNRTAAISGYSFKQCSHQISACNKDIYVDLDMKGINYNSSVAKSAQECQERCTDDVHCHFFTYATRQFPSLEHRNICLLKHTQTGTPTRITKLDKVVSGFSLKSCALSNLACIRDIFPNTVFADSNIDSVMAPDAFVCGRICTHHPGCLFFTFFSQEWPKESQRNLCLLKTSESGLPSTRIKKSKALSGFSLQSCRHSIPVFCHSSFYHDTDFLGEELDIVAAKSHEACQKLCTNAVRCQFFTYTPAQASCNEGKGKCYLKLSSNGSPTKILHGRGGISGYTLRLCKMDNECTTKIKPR
# Method: Inhibitory activities of the compound of the present invention on human blood coagulation factor XIa, factor VIIa, factor IXa, factor Xa, factor XIIa, plasma kallikrein and thrombin were evaluated. A chromogenic substrate solution was added to each of enzyme solutions, the absorbance at 405 nm was measured continuously at 37° C. for 5 minutes at intervals of 15 seconds, and the decomposition rate of each of substrates (mOD/min) was calculated. The half maximal (50%) inhibitory concentration (IC50) of the compound of the present invention on each of the enzymes was calculated by linear regression by using least-squares method from the concentration of the compound of the present invention which was converted in terms of natural logarithm and the rate of enzyme inhibition calculated according to the following equation.
# The rate of enzyme inhibition (%) of the compound of the present invention was calculated by using the following equation: Rate of enzyme inhibition (%)=100×{(Cont(e)−BL(e))−(Comp(e)−BL(e))/(Cont(e)−BL(e))}
# Cont (e): Decomposition rate of substrate (mOD/min) when enzyme solution and substrate solution were added to physiological saline containing 5% dimethyl sulfoxide
# Comp (e): Decomposition rate of substrate (mOD/min) when enzyme solution and substrate solution were added to physiological saline containing 5% dimethyl sulfoxide and the compound of the present invention
# The inhibitory activity on human blood coagulation factor XIa (Haematologic Technologies Inc.) was measured by using the enzyme solution adjusted to 0.1 U/mL by a buffer solution containing 300 mM of NaCl, 10 mM of KCl, 2 mg/mL of PEG 6000 and 100 mM of HEPES-NaOH (pH 7.4) as well as S-2366 (pyroglu-Pro-Arg-pNA, CHROMOGENIX) adjusted to 1 mM by distilled water.
# [3] = rats, 1 mg/kg per os, 8 hours after administration
Compound,APTT × (standard human plasma),"concentration at 8 h [1, 3]",AUC ([1]; 1 mg/kg per os),APTT × 2 maintaining time ([1]; rats),"C8h/APTT × 2 ([1]; rats, 1 mg/kg per os)",IC50 [2],"Plasma concentration C8h [1, 3]"
"Nc1ccc(-c2cnc([C@@H]3CCc4cc(-c5cc(Cl)ccc5-n5cnnn5)cc(=O)n43)[nH]2)c(F)n1 [Comparative Example 1 (1), (3S)-3-[5-(6-amino-2-fluoro-3-pyridinyl)-1H-imidazol-2-yl]-7-[5-chloro-2-(1H-tetrazol-1-yl)phenyl]-2,3-dihydro-5(1H)-indolizinone]",1.2 µM,170 nM,4.7 µM·h,0* h,0.15,–,–
"Nc1ccc(-c2[nH]c([C@@H]3CCc4cc(-c5cc(Cl)ccc5-n5cnnn5)cc(=O)n43)nc2Cl)c(F)n1 [Comparative Example 1 (2), (3S)-3-[5-(6-amino-2-fluoro-3-pyridinyl)-4-chloro-1H-imidazol-2-yl]-7-[5-chloro-2-(1H-tetrazol-1-yl)phenyl]-2,3-dihydro-5(1H)-indolizinone]",1.8 µM,26 nM,0.69 µM·h,0* h,0.014,4.8 nM,–
"Nc1ccc(-c2[nH]c([C@@H]3CCc4cc(-c5cc(Cl)ccc5-n5cnnn5)cc(=O)n43)nc2F)cn1 [Comparative Example 1 (3), (3S)-3-[5-(6-amino-3-pyridinyl)-4-fluoro-1H-imidazol-2-yl]-7-[5-chloro-2-(1H-tetrazol-1-yl)phenyl]-2,3-dihydro-5(1H)-indolizinone]",0.55 µM,81 nM,1.7 µM·h,<1 h,0.15,1.4 nM,–
"Nc1ccc(-c2ncc([C@@H]3CCc4cc(-c5cc(Cl)ccc5-n5cnnn5)cc(=O)n43)[nH]2)c(F)n1 [Comparative Example 2 (1), (3S)-3-[2-(6-amino-2-fluoro-3-pyridinyl)-1H-imidazol-5-yl]-7-[5-chloro-2-(1H-tetrazol-1-yl)phenyl]-2,3-dihydro-5(1H)-indolizinone]",4.0 µM,–,0.056 µM·h,0* h,–,19 nM,BLQ*
"Nc1ccc(-c2nc(Cl)c([C@@H]3CCc4cc(-c5cc(Cl)ccc5-n5cnnn5)cc(=O)n43)[nH]2)c(F)n1 [Comparative Example 2 (3), (3S)-3-[2-(6-amino-2-fluoro-3-pyridinyl)-4-chloro-1H-imidazol-5-yl]-7-[5-chloro-2-(1H-tetrazol-1-yl)phenyl]-2,3-dihydro-5(1H)-indolizinone]",2.1 µM,1100 nM,23 µM·h,<2 h,0.52,4.4 nM,–
"Nc1ccc(-c2nc(F)c([C@@H]3CCc4cc(-c5cc(Cl)ccc5-n5cnnn5)cc(=O)n43)[nH]2)cn1 [Comparative Example 2 (5), (3S)-3-[2-(6-Amino-3-Pyridinyl)-4-Fluoro-1H-Imidazol-5-Yl]-7-[5-Chloro-2-(1H-Tetrazol-1-Yl)Phenyl]-2,3-Dihydro-5(1H)-Indolizinone]",0.21 µM,73 nM,1.6 µM·h,<2 h,0.34,1.6 nM,–
"COC(=O)Nc1ccc(-c2nc(Cl)c([C@@H]3CCc4nc(-c5cc(Cl)ccc5-n5cnnn5)cc(=O)n43)[nH]2)cc1 [Comparative Example 3 (1), methyl[4-(4-chloro-5-{(6S)-2-[5-chloro-2-(1H-tetrazol-1-yl)phenyl]-4-oxo-4,6,7,8-tetrahydropyrrolo[1,2-a]pyrimidin-6-yl}-1H-imidazol-2-yl)phenyl]carbamate]",0.64 µM,180 nM,4.2 µM·h,<2 h,0.29,1.6 nM,–
"Nc1ccc(-c2[nH]c([C@@H]3CCc4nc(-c5cc(Cl)ccc5-n5cnnn5)cc(=O)n43)nc2Cl)c(F)n1 [Comparative Example 3 (2), (6S)-6-[5-(6-amino-2-fluoro-3-pyridinyl)-4-chloro-1H-imidazol-2-yl]-2-[5-chloro-2-(1H-tetrazol-1-yl)phenyl]-7,8-dihydropyrrolo[1,2-a]pyrimidin-4(6H)-one]",3.7 µM,27 nM,1.4 µM·h,0* h,0.0073,11 nM,–
"N#Cc1cn(-c2ccc(Cl)cc2-c2cc3n(c(=O)c2)[C@H](c2nc(Cl)c(-c4ccc(N)nc4)[nH]2)CC3)nn1 [Comparative Example 4, 1-(2-{(3S)-3-[5-(6-amino-3-pyridinyl)-4-chloro-1H-imidazol-2-yl]-5-oxo-1,2,3,5-tetrahydro-7-indolizinyl}-4-chlorophenyl)-1H-1,2,3-triazole-4-carbonitrile]",2.0 µM,350 nM,8.4 µM·h,0* h,0.18,2.7 nM,–
"Nc1ccc(-c2[nH]c([C@@H]3CCc4cc(-c5cc(Cl)ccc5-n5cnnn5)cc(=O)n43)nc2F)c(F)n1 [Example 1 (6), (3S)-3-[5-(6-Amino-2-Fluoro-3-Pyridinyl)-4-Fluoro-1H-Imidazol-2-Yl]-7-[5-Chloro-2-(1H-Tetrazol-1-Yl)Phenyl]-2,3-Dihydro-5(1H)-Indolizinone]",0.80 µM,880 nM,33 µM·h,>8 h,1.1,1.7 nM,–
"Nc1ccc(-c2nc(F)c([C@@H]3CCc4cc(-c5cc(Cl)ccc5-n5cnnn5)cc(=O)n43)[nH]2)c(F)n1 [Example 2 (10), (3S)-3-[2-(6-Amino-2-Fluoro-3-Pyridinyl)-4-Fluoro-1H-Imidazol-5-Yl]-7-[5-Chloro-2-(1H-Tetrazol-1-Yl)Phenyl]-2,3-Dihydro-5(1H)-Indolizinone]",0.49 µM,1000 nM,15 µM·h,>8 h,2.1,1.7 nM,–
"Nc1ccc(-c2nc(F)c([C@@H]3CCc4nc(-c5cc(Cl)ccc5-n5cnnn5)cc(=O)n43)[nH]2)c(F)n1 [Example 3 (4), (6S)-6-[2-(6-Amino-2-Fluoro-3-Pyridinyl)-4-Fluoro-1H-Imidazol-5-Yl]-2-[5-Chloro-2-(1H-Tetrazol-1-Yl)Phenyl]-7,8-Dihydropyrrolo[1,2-a]Pyrimidin-4(6H)-One]",0.47 µM,1600 nM,28 µM·h,>8 h,3.4,1.9 nM,–
